Experimental data as given in patent US20260309717A1, “PROXIMITY INDUCING SYSTEM AND USES THEREOF” (SORBONNE UNIVERSITE, priority 2022, published 2026).

Tests used:
Format in all cases: cell-based
[1] = target: T1, mCherry-^FIREtag / ^FIREmate-ECFP-Giantin (Halorhodospira halophila, UniProt P16113, A30V/C69G/D97P/F96I, form not given/G21E/G25R/K17N/M100R/M109L/Q41L/Q99S/S72T/T101G/V83A/Y94W/Y98T); assay: Induction of proximity with a non-fluorogenic chromophore, HeLa cells; details: 10 μM
T1 construct: FIREmate-ECFP-Giantin(3131-3259) and mCherry-FIREtag in HeLa cells
T1 sequence (P16113 1-114 A30V/C69G/D97P/F96I/G21E/G25R/K17N/M100R/M109L/Q41L/Q99S/S72T/T101G/V83A/Y94W/Y98T): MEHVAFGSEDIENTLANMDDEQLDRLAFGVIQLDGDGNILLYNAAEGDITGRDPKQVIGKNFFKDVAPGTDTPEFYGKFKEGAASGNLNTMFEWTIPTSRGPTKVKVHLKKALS
Procedure: HeLa cells co-expressing mCherry-^FIREtag and ^FIREmate-ECFP-Giantin were treated with 10 μM HBR-2,5DM (match1), washed with HBR-2,5DM-free medium and then treated with 10 μM HBIR-3M. Cells were imaged by time-lapse spinning-disk confocal microscopy. FIGS. 9A-D are sets of representative confocal micrographs of untreated cells (9A), cells after addition of HBR-2,5DM (match1) (9B), cells after washout of HBR-2,5DM (match1) (9C), and cells after addition of HBIR-3M (9D). (mCherry: ex/em 561/606-675 nm; FIRE: ex/em 488/508-570 nm). Scale bars are 10 μm.
Next, experiments were carried out to investigate whether other chromophores could act as molecular inducer of proximity and provide new properties. In particular, non-fluorogenic chromophores, such as HBIR-3M, were investigated. […] The fusion proteins mCherry-^FIREtag (red fluorescence) and ^FIREmate-ECFP-Giantin (blue fluorescence) were co-expressed in HeLa cells as described above.

[2] = target: T1, mCherry-^FIREtag / ^FIREmate-ECFP-Giantin; assay: Recruitment of cytoplasmic protein to the Golgi apparatus, HeLa cells; details: 10 μM
Procedure: FIGS. 6A-E illustrate the recruitment of cytoplasmic proteins to the Golgi apparatus with the proximity inducing system described herein. FIG. 6A is a representation of the experimental design wherein HeLa cells co-expressing mCherry-^FIREtag and ^FIREmate-ECFP-Giantin were treated with 10 µM of match (either HBR-2,5DM or HMBR), and imaged by time-lapse confocal microscopy. FIGS. 6B-C are graphs showing the temporal evolution of the FIRE signal detected upon addition at 0 min of HBR-2,5DM (match1-6B) or HMBR (match2-6C). Data represents the mean values±SD of 10 cells from n=3 independent experiments (6B, D), or of 12 cells from n=3 independent experiments (6C, E). FIGS. 6D-E are sets of representative confocal micrographs of cells before (0 min) and after (5 min) addition of HBR-2,5DM (match1-6D) or HMBR (match2-6E) (mCherry: ex/em 561/606-675 nm; FIRE: ex/em 488/508-570 nm; ECFP: ex/em 445/455-499 nm). […] Scale bars are 20 μm.
(§1) The confocal micrographs were acquired on a Zeiss LSM 980 Laser Scanning Microscope equipped with a plan apochromat 63x/1.4 NA oil immersion objective. ZEN software was used to collect the data. The images were analyzed using Icy (2.4.0.0) and Fiji (Image J). In short, to track fluorescence signal in a specific organelle, a ROI (region of interest) was determined by masking the signal in the ECFP (Enhanced Cyan Fluorescent Protein) channel with the plug-in HK-means with the following parameters: intensity class equals 100, minimum object size (pixels or px) equals 500, maximum object size (px) equals 1500-3000. The signal intensity of the ROI was tracked over time for each channel by using plug-in Active Contours. The background signal was subtracted. Data were processed using GraphPad Prism v9.3.0.
(§2) To further evaluate the scope of the proximity inducing system described herein and show its versatility, ^FIREmate was anchored at the membrane of various organelles or cellular structures so that ^FIREmate faced the cytosol. ^FIREmate was thus fused: • to the N-terminus of the transmembrane domain (amino acid residues at positions 3131-3259) of Giantin for location at the cis-medial rims of the Golgi apparatus (FIG. 6A), • to the N-terminus of the transmembrane domain (amino acid residues at positions 100-134) of the cytochrome b5 (Cb5) for location at the endoplasmic reticulum membrane (FIG. 7A), and • to the C-terminus of the Lyn11 inner membrane targeting sequence for location at the plasma membrane (FIG. 8A).
(§3) For each construct, an ECFP was inserted between ^FIREmate and the other protein domain/sequence to monitor the localization of the resulting fusion protein (blue fluorescence). Each fusion protein was co-expressed in mammalian cells (HeLa cells or HEK293 cells as indicated) together with mCherry-^FIREtag (red fluorescence). […]

[3] = target: T2, mCherry-^FIREtag / ^FIREmate-ECFP-Cb5 (Halorhodospira halophila, UniProt P16113, A30V/C69G/D97P/F96I, form not given/G21E/G25R/K17N/M100R/M109L/Q41L/Q99S/S72T/T101G/V83A/Y94W/Y98T); assay: Recruitment of cytoplasmic protein to the endoplasmic reticulum, HeLa cells; details: 10 μM
T2 construct: FIREmate-ECFP-Cb5(100-134) and mCherry-FIREtag in HeLa cells
T2 sequence (P16113 1-114 A30V/C69G/D97P/F96I/G21E/G25R/K17N/M100R/M109L/Q41L/Q99S/S72T/T101G/V83A/Y94W/Y98T): T1 sequence (P16113 1-114 A30V/C69G/D97P/F96I/G21E/G25R/K17N/M100R/M109L/Q41L/Q99S/S72T/T101G/V83A/Y94W/Y98T)
Procedure: FIGS. 7A-E illustrate the recruitment of cytoplasmic proteins to the endoplasmic reticulum with the proximity inducing system described herein. FIG. 7A is a representation of the experimental design wherein HeLa cells co-expressing mCherry-^FIREtag and ^FIREmate-ECFP-Cb5 were treated with 10 μM of match (either HBR-2,5DM or HMBR), and imaged by time-lapse confocal microscopy. FIGS. 7B-C are graphs showing the temporal evolution of the FIRE signal detected upon addition at 0 min of HBR-2,5DM (match1-7C) or HMBR (match2-7D). Data represents the mean values±SD of 17 cells from n=3 independent experiments (7B, D), or of 18 cells from n=3 independent experiments (7C, E). FIGS. 7D-E are sets of representative confocal micrographs of cells before (0 min) and after (5 min) addition of HBR-2,5DM (match1-7D) or HMBR (match2-7E) (mCherry: ex/em 561/606-675 nm; FIRE: ex/em 488/508-570 nm; ECFP: ex/em 445/455-499 nm). […] Scale bars are 20 μm.
as §1, §2, §3

[4] = target: T3, mCherry-^FIREtag / Lyn11-ECFP-^FIREmate (Halorhodospira halophila, UniProt P16113, A30V/C69G/D97P/F96I, form not given/G21E/G25R/K17N/M100R/M109L/Q41L/Q99S/S72T/T101G/V83A/Y94W/Y98T); assay: Recruitment of cytoplasmic protein to the plasma membrane, HEK293 cells; details: 10 μM
T3 construct: Lyn11-ECFP-FIREmate and mCherry-FIREtag in HEK293 cells
T3 sequence (P16113 1-114 A30V/C69G/D97P/F96I/G21E/G25R/K17N/M100R/M109L/Q41L/Q99S/S72T/T101G/V83A/Y94W/Y98T): T1 sequence (P16113 1-114 A30V/C69G/D97P/F96I/G21E/G25R/K17N/M100R/M109L/Q41L/Q99S/S72T/T101G/V83A/Y94W/Y98T)
Procedure: FIGS. 8A-E illustrate the recruitment of cytoplasmic proteins to the plasma membrane with the proximity inducing system described herein. FIG. 8A is a representation of the experimental design wherein HEK293 cells co-expressing mCherry-^FIREtag and Lyn11-ECFP-^FIREmate were treated with 10 μM of match (either HBR-2,5DM or HMBR), and imaged by time-lapse confocal microscopy. FIGS. 8B-C are graphs showing the temporal evolution of the FIRE signal detected upon addition at 0 min of HBR-2,5DM (match1-8B) or HMBR (match2-8C). Data represents the mean values±SD of 22 cells from n=3 independent experiments (8B, D), or of 30 cells from n=3 independent experiments (8C, E). FIGS. 8D-E are sets of representative confocal micrographs of cells before (0 min) and after (5 min) addition of HBR-2,5DM (match1-8D) or HMBR (match2-8E) (mCherry: ex/em 561/606-675 nm; FIRE: ex/em 488/508-570 nm; ECFP: ex/em 445/455-499 nm). […] Scale bars are 20 μm.
as §1, §2, §3

[5] = target: T4, ^FIREmate and ^FIREtag (fused to FRB and FKBP) (Halorhodospira halophila, UniProt P16113, A30V/C69G/D97P/F96I, form not given/G21E/G25R/K17N/M100R/M109L/Q41L/Q99S/S72T/T101G/V83A/Y94W/Y98T); assay: Flow cytometry of fluorescent ternary assembly formation in HEK293T cells co-expressing FKBP-^FIREtag and FRB-^FIREmate
T4 sequence (P16113 1-114 A30V/C69G/D97P/F96I/G21E/G25R/K17N/M100R/M109L/Q41L/Q99S/S72T/T101G/V83A/Y94W/Y98T): T1 sequence (P16113 1-114 A30V/C69G/D97P/F96I/G21E/G25R/K17N/M100R/M109L/Q41L/Q99S/S72T/T101G/V83A/Y94W/Y98T)
Procedure: FIGS. 2A and 2B are graphs illustrating the fluorogen-dependent interaction between the two polypeptides ^FIREmate and ^FIREtag. The graphs show the normalized average fluorescence detected from about 50,000 HEK293T cells co-expressing the FK506-binding protein (FKBP) fused to ^FIREtag and the FKBP-rapamycin-binding domain of mammalian target of rapamycin (FRB) fused to ^FIREmate treated without (triangles) or with (squares) 500 nM of rapamycin, and with 1, 5, 10, 25 or 50 μM of HBR-2,5DM (2A) or HMBR (2B). Data represent the mean values±SD of three independent experiments.
The formation of a fluorescent ternary assembly was assessed by flow cytometry in HEK293 cells expressing ^FIREmate and ^FIREtag fused to the C-termini of FKBP (FK506-binding protein) and FRB (FKBP-rapamycin-binding domain of mammalian target of rapamycin), […]. FKBP and FRB are able to dimerize upon addition of rapamycin. Treatment of the HEK293 cells with rapamycin is thus expected to induce the dimerization of FKBP and FRB, and subsequently to induce proximity between ^FIREtag and ^FIREmate.

[6] = system: mCherry-FKBP-^FIREtag / TOM20-^FIREmate / FRB-ECFP-Giantin; assay: Orthogonality with FRB-FKBP-rapamycin CIP system, confocal microscopy, HeLa cells; details: simultaneous addition of 10 μM HBR-2,5DM and 500 nM rapamycin
Procedure: FIG. 12A is a representation of the experimental design wherein HeLa cells co-expressing mCherry-FKBP-^FIREtag, TOM20-^FIREmate and FRB-ECFP-Giantin were treated with 10 μM of match (i.e., HBR-2,5DM) and 500 nM rapamycin, and imaged by time-lapse confocal microscopy. FIG. 12B is a set of representative confocal micrographs of cells before and after addition of HBR-2,5DM (match1) and rapamycin (rap) (mCherry: ex/em 561/606-675 nm; FIRE: ex/em 488/508-570 nm; ECFP: ex/em 445/455-499 nm). Scale bars are 20 μm.
as §1, with “v9.3.0. […]” for “v9.3.0.”

Cc1cc(/C=C2\SC(=O)NC2=S)ccc1O [HBIR-3M, (Z)-5-(4-hydroxy-3-methylbenzylidene)-4-thioxo-1,3-thiazolidin-2-one]
assembly with ^FIREtag and ^FIREmate (tightness, fluorescence) [1]: very tight non-fluorescent ‘invisible’ assembly
induction of proximity relative to HBR-2,5DM ([1]; cycles of sequential addition and removal): as efficiently as HBR-2,5DM

Cc1cc(/C=C2\SC(=S)NC2=O)ccc1O [HMBR, (Z)-5-(4-hydroxy-3-methylbenzylidene)-2-thioxo-1,3-thiazolidin-4-one]
FIRE signal at the Golgi apparatus [2]: simultaneous appearance of green fluorescence
translocation of mCherry-^FIREtag to the Golgi apparatus [2]: rapid translocation of mCherry-^FIREtag to the organelle
FIRE signal at the endoplasmic reticulum [3]: simultaneous appearance of green fluorescence
translocation of mCherry-^FIREtag to the endoplasmic reticulum [3]: rapid translocation of mCherry-^FIREtag to the organelle
FIRE signal at the plasma membrane [4]: simultaneous appearance of green fluorescence
translocation of mCherry-^FIREtag to the plasma membrane [4]: rapid translocation of mCherry-^FIREtag to the organelle
dimerization of FKBP and FRB (induced proximity) ([5]; absence of rapamycin): able to induce the dimerization of FKBP and FRB
formation of a ternary fluorescent assembly ([5]; fluorogen 1, 5, 10, 25 or 50 μM, HEK293 cells): induced the formation of a ternary fluorescent assembly at all tested fluorogen concentrations
dependence of ternary fluorescent assembly formation on rapamycin (initial proximity) ([5]; with or without 500 nM rapamycin, fluorogen 1-50 μM): regardless of the presence or absence of rapamycin

CO[C@H]1C[C@@H]2CC[C@@H](C)[C@@](O)(O2)C(=O)C(=O)N2CCCC[C@H]2C(=O)O[C@H]([C@H](C)C[C@@H]2CC[C@@H](O)[C@H](OC)C2)CC(=O)[C@H](C)/C=C(\C)[C@@H](O)[C@@H](OC)C(=O)[C@H](C)C[C@H](C)/C=C/C=C/C=C/1C [rapamycin, reference compound]
translocation of mCherry-FKBP-^FIREtag [6]: triggered the translocation of mCherry-FKBP-^FIREtag to the Golgi apparatus and to the mitochondria
